# B1: His-tagged MUC1: purified His-tagged MUC1 cytoplasmic domain (MUC1-CD, SEQ ID NO:2) (protein, listed as Homo sapiens)
# chain: CQCRRKNYGQLDIFPARDTYHPMSEYPTYHTHGRYVPPSSTDRSPYEKVSAGNGGSSLSYTNPAVAAASANL
# modifications: His tag
# B2: HRG: heregulin (HRG) (Calbiochem-Novabiochem), ligand activating ErbB2, ErbB3 and ErbB4 (protein, listed as Homo sapiens)
# chain: MEIYSPDMSEVAAERSSSPSTQLSADPSLDGLPAAEDMPEPQTEDGRTPGLVGLAVPCCACLEAERLRGCLNSEKICIVPILACLVSLCLCIAGLKWVFVDKIFEYDSPTHLDPGGLGQDPIISLDATAASAVWVSSEAYTSPVSRAQSESEVQVTVQGDKAVVSFEPSAAPTPKNRIFAFSFLPSTAPSFPSPTRNPEVRTPKSATQPQTTETNLQTAPKLSTSTSTTGTSHLVKCAEKEKTFCVNGGECFMVKDLSNPSRYLCKCPNEFTGDRCQNYVMASFYSTSTPFLSLPE
# Assays:
# [1] = system: MUC1 expression in MCF10A cells; assay: MUC1 expression by immunoblot of whole-cell lysates after stimulation; assay type: cell-based
# Procedure: FIG. 2A is a pair of photographs of immunoblots depicting the induction of MUC1 expression following heregulin (HRG) treatment. MCF10A cells were cultured without (“0”) and with HRG (20 ng/mL) for 24 (“24”) and 48 (“48”) hours. Cells were harvested at the indicated time points and lysed for western blot analysis. Whole-cell lysates were subjected to sodium dodecyl sulfate polyacrylamide gel electrophoresis (SDS-PAGE) under reducing conditions and proteins were detected (immunoblotted, “IB”) using antibodies specific for MUC1-C and β-actin (top and bottom photographs, respectively). The relative positions (e.g., the molecular weights) of the proteins are reported in kilodaltons (kDa) and indicated to the left of each of the immunoblots (e.g., 25 kDa or 45 kDa). “HRG” indicates treatment with heregulin.
# FIG. 2C is a photograph of an immunoblot depicting the induction of MUC1 expression following IL-6 treatment. MCF10A cells were treated without (“0”) and with IL-6 (20 ng/mL) and then cultured at 37° C. for 24 (“24”) and 48 (“48”) hours. Cells were harvested at the indicated time points and lysed for western blot analysis. Whole-cell lysates were subjected to SDS-PAGE under reducing conditions and proteins were detected (immunoblotted, “IB”) using antibodies specific for MUC1-C. The relative positions (e.g., the molecular weights) of the proteins are reported in kilodaltons (kDa) and indicated to the left of the immunoblot. “IL-6” indicates IL-6 treatment.
# Heregulin treatment of cells results in (i) activation of ErbB2, ErbB3, and ErbB4 and (ii) induction of the formation of complexes between these receptors and MUC1. To assess if MUC1 is regulated by heregulin in normal cells, the induction of MUC1 expression by heregulin treatment was assessed in the immortalized, but non-cancer breast cell line MCF10A. […] As a control for loading, β-actin was detected using anti-β-actin (Sigma, St. Louis, Mo.). […]
# GST-STAT3 = GST-STAT3 (Homo sapiens, UniProt P40763); assay: In vitro GST pull-down binding assay; conditions: purified His-tagged MUC1-CD, GST as control, immunoblot
# Chain of GST-STAT3 (P40763 whole entry): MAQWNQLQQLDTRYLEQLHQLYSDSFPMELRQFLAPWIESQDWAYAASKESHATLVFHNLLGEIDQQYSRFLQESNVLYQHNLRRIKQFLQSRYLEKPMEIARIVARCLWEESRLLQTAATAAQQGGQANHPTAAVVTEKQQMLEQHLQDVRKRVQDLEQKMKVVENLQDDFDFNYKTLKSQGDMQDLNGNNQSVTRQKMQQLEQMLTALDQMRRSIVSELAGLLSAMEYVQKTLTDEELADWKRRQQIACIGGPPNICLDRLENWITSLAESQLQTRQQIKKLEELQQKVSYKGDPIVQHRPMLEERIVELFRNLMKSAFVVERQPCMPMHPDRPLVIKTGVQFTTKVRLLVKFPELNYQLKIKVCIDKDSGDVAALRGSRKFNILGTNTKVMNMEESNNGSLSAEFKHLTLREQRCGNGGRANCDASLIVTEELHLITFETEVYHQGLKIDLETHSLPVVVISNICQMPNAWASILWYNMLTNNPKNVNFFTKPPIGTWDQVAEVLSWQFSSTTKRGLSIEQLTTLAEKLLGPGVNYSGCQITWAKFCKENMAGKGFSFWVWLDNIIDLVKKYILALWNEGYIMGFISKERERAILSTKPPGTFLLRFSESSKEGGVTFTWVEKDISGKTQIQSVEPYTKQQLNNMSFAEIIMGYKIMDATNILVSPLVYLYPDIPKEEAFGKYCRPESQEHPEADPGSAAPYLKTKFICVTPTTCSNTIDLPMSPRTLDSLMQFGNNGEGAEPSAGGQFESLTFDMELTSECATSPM
# Procedure: The binding of MUC1 to HSF1 could be direct or indirect, for example, through a third protein. To determine if the interaction between MUC1 and HSF1 is a direct, physical interaction, in vitro binding assays was performed. GST- and GST-STAT3 polypeptides were incubated with purified His-tagged MUC1-CD (similar to GST-HSF1-His-MUC1 experiments described above). The protein mixtures were then incubated with glutathione beads, which bind to the GST proteins and associated binding partners if present. The glutathione bead adsorbates were washed and immunoblotted with antibodies specific for His tags or to MUC1-C (as described above).
molecule,measurement,setting,value
IL-6: inflammatory cytokine IL-6 (R&D Systems) that activates STAT3 through the Janus kinases,MUC1 expression,"[1]; 0.1% serum overnight, 20 ng/mL IL-6, expected result",induce both STAT3 phosphorylation (activation) and MUC1 expression
same,MUC1 expression,"[1]; IL-6 20 ng/mL, 24 and 48 hours (FIG. 2C)",induces MUC1 expression
B1,binding to GST-STAT3 (glutathione bead adsorbates),GST-STAT3,present in GST-STAT3 adsorbates but not GST-adsorbates
B2,MUC1 protein expression,"[1]; 20 ng/mL HRG, anti-MUC1-C immunoblot (FIG. 2A)",increase in MUC1 protein expression

# Source: patent US7972870B2, “Methods and compositions relating to the regulation of MUC1 by HSF1 and STAT3” (Dana-Farber Cancer Institute, Inc., priority 2007, dated 2011)
